Entries after “also recorded” stand apart in the source; their conditions may differ. Where two headings read alike, the source gives them in different places. Ends that are not written are not given here.
Legend:
[1] = tested on: ciliary motility; conditions: pyo compound without obvious ultrastructural lesions; phenazine derivative with some membrane disruption; cited from earlier work
[2] = tested on: Human chondrocytes; experiment: Alginate-based cartilage growth model, type II collagen production; type: cell-based
Method: Next, the alginate-based cell system (cartilage growth model) was used to determine whether PTH dosing could stimulate chondrocytes to produce cartilage. […] Type II collagen is a major component of the extracellular matrix of nasal cartilage and therefore was used as a molecular marker for cartilage growth in this assay.
The cell-containing alginate beads were incubated in the presence of various test solutions for 12 days at 37° C., 5% CO2. After the incubation, the alginate beads were processed using an extraction method in order to quantify the production of type II collagen.
The effect of PTH on Type II collagen production was studied. The positive control in this study was re-differentiation media and the negative control was growth media. PTH was tested in a range of 20 μg to 200 μg as FORSTEO or a formulation containing the formulation enhancers (sample 1, above).
In addition, type II collagen production was assessed in the presence of a formulation containing 5 μg of insulin-like growth factor I (IGF-I). IGF-I is known to be a potent promoter of cartilage type-II collagen expression in chondrocytes and thus is an ideal positive control for the assay.

[3] = 100 μg/day by injection, preliminary results; cited from earlier work
[4] = tested on: human chondrocyte cell monolayer; experiment: Human chondrocyte monolayer proliferation (MTT); type: cell-based; conditions: MTT at t=0 and after 4 days at 37° C./5% CO2
Text: A human chondrocyte cell monolayer model was employed to examine cell proliferation in the presence of PTH in a simple formulation (FORSTEO) or a formulation containing PTH and the formulation enhancers (sample 1, above). These were compared to a positive control (media containing antibiotics, insulin, TGF-beta and IGF-1) and negative control (media devoid of any cell growth components). It was desired to understand if the presence of PTH could stimulate chondrocyte growth. To this end, the above mentioned formulations and controls were applied to the apical side of the chondrocyte monolayers, and the MTT assay (Example 3) was conducted at t=0 and then after 4 days incubation at 37° C./5% CO2.

[5] = tested on: hematopoietic stem cells; conditions: mice, Calvi et al. 2003; cited from earlier work
[6] = tested on: normal, human-derived tracheal/bronchial epithelial cells (EpiAirway™ Tissue Model); type: in vitro ADME
Method: (§1) The effect of various “Generally Regarded As Safe” (GRAS) permeation enhancers was measured in a MatTek cell model. Three GRAS permeation enhancers (EDTA, ethanol, Tween 80) were evaluated individually or in combination with one another. Sorbitol was used as a tonicifier to adjust the osmolarity of formulations to 220 mOsm/kg whenever applicable. The formulation pH was adjusted to 4. The permeation enhancer combination of 45 mg/ml M-β-CD, 1 mg/ml DDPC, and 1 mg/ml EDTA at pH 4.5 served as the positive control. The formulation contains sorbitol only was used as the negative control. Each formulation is evaluated in the presence and absence of preservative. For all formulations, sodium benzoate is used as the preservative.
(§2) The cell line MatTek Corp. (Ashland, Mass.) are normal, human-derived tracheal/bronchial epithelial cells (EpiAirway™ Tissue Model). Cells are cultured for 24-48 hours before use to produce a tissue insert.
Each tissue insert is placed in an individual well containing 1 ml media. On the apical surface of the inserts, 100 μl of test formulation is applied, and the sample is shaken for 1 h at 37° C. […] Transepithelial electrical resistance (TER) is measured before and after the 1-h incubation. Following the incubation, the cell inserts are analyzed for cell viability via the mitochondrial dehydrogenase (MDH) assay. […]

[7] = after feeding to rats; cited from earlier work
[8] = tested on: normal, human-derived tracheal/bronchial epithelial cells (EpiAirway™ Tissue Model); experiment: Transepithelial electrical resistance (TER) in MatTek EpiAirway tissue model; type: cell-based; conditions: 100 μl formulation on apical surface, 1 h at 37° C., TER before and after
Method: The effect of various “Generally Regarded As Safe” (GRAS) permeation enhancers was measured in a MatTek cell model. Three GRAS permeation enhancers (EDTA, ethanol, Tween 80) were evaluated individually or in combination with one another. Sorbitol was used as a tonicifier to adjust the osmolarity of formulations to 220 mOsm/kg whenever applicable. The formulation pH was adjusted to 4. The permeation enhancer combination of 45 mg/ml M-β-CD, 1 mg/ml DDPC, and 1 mg/ml EDTA at pH 4.5 served as the positive control. The formulation contains sorbitol only was used as the negative control. Each formulation is evaluated in the presence and absence of preservative. […]
(§3) Each tissue insert is placed in an individual well containing 1 ml media. […] Transepithelial electrical resistance (TER) is measured before and after the 1-h incubation. Following the incubation, the cell inserts are analyzed for cell viability via the mitochondrial dehydrogenase (MDH) assay.
TER measurements are accomplished using the Endohm-12 Tissue Resistance Measurement Chamber connected to the EVOM Epithelial Volt-ohmmeter (World Precision Instruments, Sarasota, Fla.) with the electrode leads. […] The background resistance is measured with 1.5 ml Media in the Endohm tissue chamber and 300 μl Media in the blank insert. […] Resistance is expressed as (resistance measured−blank)×0.6 cm^2. […]

[9] = tested on: normal, human-derived tracheal/bronchial epithelial cells (EpiAirway™ Tissue Model); experiment: Cell viability, MTT assay, EpiAirway tissue inserts; type: cell-based; conditions: after 1 h incubation with formulation
Method: as §1, §2, §3
Cell viability is assessed using the MTT assay (MTT-100, MatTek kit). […] The optical density of the samples was measured at 550 nm on a plate reader.

[10] = tested on: normal, human-derived tracheal/bronchial epithelial cells (EpiAirway™ Tissue Model); experiment: Cytotoxicity, LDH assay, EpiAirway tissue inserts; type: cell-based; conditions: after 1 h incubation with formulation
Method: The effect of various “Generally Regarded As Safe” (GRAS) permeation enhancers was measured in a MatTek cell model. Three GRAS permeation enhancers (EDTA, ethanol, Tween 80) were evaluated individually or in combination with one another. Sorbitol was used as a tonicifier to adjust the osmolarity of formulations to 220 mOsm/kg whenever applicable. The formulation pH was adjusted to 4. The permeation enhancer combination of 45 mg/ml M-β-CD, 1 mg/ml DDPC, and 1 mg/ml EDTA at pH 4.5 served as the positive control. The formulation contains sorbitol only was used as the negative control. Each formulation is evaluated in the presence and absence of preservative. For all formulations, sodium benzoate is used as the preservative. […]
as §3
The amount of cell death is assayed by measuring the loss of lactate dehydrogenase (LDH) from the cells using a CytoTox 96 Cytoxicity Assay Kit (Promega Corp., Madison, Wis.). LDH analysis of the apical media is evaluated. […] Following incubation, 50 μl of stop solution is added to each well and the plates read on an optical density plate reader at 490 nm.

[11] = anesthetized rats, cited from earlier work

2-alkyl-4-hydroxyquinolines [pyo compound]
concentration producing ciliostasis / inhibiting ciliary motility [1]: 50 µg/mL

CC[C@H](C)[C@H](NC(=O)[C@H](CCC(=O)O)NC(=O)[C@H](CO)NC(=O)[C@@H](NC(=O)[C@@H](N)CO)C(C)C)C(=O)N[C@@H](CCC(N)=O)C(=O)N[C@@H](CC(C)C)C(=O)N[C@@H](CCSC)C(=O)N[C@@H](Cc1cnc[nH]1)C(=O)N[C@@H](CC(N)=O)C(=O)N[C@@H](CC(C)C)C(=O)NCC(=O)N[C@@H](CCCCN)C(=O)N[C@@H](Cc1cnc[nH]1)C(=O)N[C@@H](CC(C)C)C(=O)N[C@@H](CC(N)=O)C(=O)N[C@@H](CO)C(=O)N[C@@H](CCSC)C(=O)N[C@@H](CCC(=O)O)C(=O)N[C@@H](CCCN=C(N)N)C(=O)N[C@H](C(=O)N[C@@H](CCC(=O)O)C(=O)N[C@@H](Cc1c[nH]c2ccccc12)C(=O)N[C@@H](CC(C)C)C(=O)N[C@@H](CCCN=C(N)N)C(=O)N[C@@H](CCCCN)C(=O)N[C@@H](CCCCN)C(=O)N[C@@H](CC(C)C)C(=O)N[C@@H](CCC(N)=O)C(=O)N[C@@H](CC(=O)O)C(=O)N[C@H](C(=O)N[C@@H](Cc1cnc[nH]1)C(=O)N[C@@H](CC(N)=O)C(=O)N[C@@H](Cc1ccccc1)C(=O)O)C(C)C)C(C)C [Teriparatide, teriparatide]
type II collagen production ([2]; 20 μg of PTH, citrate buffer or with permeation enhancers, 12 days): did not induce a substantial production of type II collagen | type II collagen production ([2]; high concentration of PTH (200 μg) in a simple formulation, 12 days, listed as PTH): a significant increase in type II collagen was observed; also recorded: modest amounts of type II collagen production | type II collagen production ([2]; high concentration of PTH in the presence of permeation enhancers, 12 days, listed as PTH): essentially no production of type II collagen; also recorded: did not induce any cartilage growth | success rates in bone marrow transplant patients [3]: improves success rates | chondrocyte proliferation [4]: does not promote growth of chondrocytes | number of functional HSCs and survival after bone marrow transplantation [5]: increases the number of functional HSCs and survival after bone marrow transplantation | impact of preservative on Teriparatide permeation [6]: no significant impact

Phaseolus vulgaris hemagglutinin
oral bioavailability [7]: more than 10%

Triton X
TER reduction [8]: significant TER reduction | cell viability (MTT assay) [9]: significant reduction of cell viability | cytotoxicity (LDH assay) [10]: significant cytotoxicity

calcitonin (CGNLSTCMLGTYTQDFNKFHTFPQTAIGVGAP; ends and bridges not checked; cysteine pairing not given here; UniProt P01258 85-116, looked up)
type II collagen production ([2]; 20 μg or 200 μg calcitonin): no effect

human growth hormone
nasal bioavailability ([11]; with N-acetyl-L-cysteine (ACS)): 12.2% | nasal bioavailability ([11]; without N-acetyl-L-cysteine): 7.5%

insulin-like growth factor I [IGF-I]
type II collagen production ([2]; 5 μg IGF-I, positive control): greater than 1.2 pg per culture
